Results on one molecule are retold here after PMC5896266, “Development of Matrix Metalloproteinase-2 Inhibitors for Cardioprotection” (Frontiers in Pharmacology, 2018).

The target in one test is MMP-9 (Homo sapiens, UniProt P14780). Description: MMP-9 inhibition (inhibitory profile). The note with it: Table 2. It counts as biochemical. As for the experimental part: (§1) The compounds were measured for MMP-1, 2, 9, 13 to determine their inhibitory profile. Efficiency Index amplifies the two major required effects, selectivity against MMP-1 and the inhibitory activity.
Chain of MMP-9 (P14780 94-707, species assumed): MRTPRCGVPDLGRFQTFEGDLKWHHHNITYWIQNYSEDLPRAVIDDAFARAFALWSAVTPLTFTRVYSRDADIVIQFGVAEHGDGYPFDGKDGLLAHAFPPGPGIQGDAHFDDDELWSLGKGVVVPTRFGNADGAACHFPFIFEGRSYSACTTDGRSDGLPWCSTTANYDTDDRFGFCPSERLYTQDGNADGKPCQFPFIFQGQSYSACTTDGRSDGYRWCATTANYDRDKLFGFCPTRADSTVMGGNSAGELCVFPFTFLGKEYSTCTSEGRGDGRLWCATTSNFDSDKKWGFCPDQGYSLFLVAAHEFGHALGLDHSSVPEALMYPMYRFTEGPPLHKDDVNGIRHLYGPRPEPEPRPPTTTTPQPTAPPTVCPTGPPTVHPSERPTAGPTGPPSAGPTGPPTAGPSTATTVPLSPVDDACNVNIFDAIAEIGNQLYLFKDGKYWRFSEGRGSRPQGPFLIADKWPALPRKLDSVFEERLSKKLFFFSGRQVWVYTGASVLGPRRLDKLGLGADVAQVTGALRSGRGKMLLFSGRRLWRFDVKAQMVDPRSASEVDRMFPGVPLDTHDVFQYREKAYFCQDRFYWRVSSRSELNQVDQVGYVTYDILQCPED

The next test addresses MMP-13 (Homo sapiens, UniProt P45452). Nature of the test: MMP-13 inhibition (inhibitory profile). The note with it: Table 2. It counts as biochemical. As for the experimental part: as §1
The subject of test [1] is neonatal rat cardiac myocytes. Nature of the test: Cell viability of neonatal rat cardiac myocytes subjected to simulated ischemia/reperfusion. It counts as cell-based. The note with it: comparison among the tested lead candidates. As for the experimental part:
For our cell viability experiments, 3 day-old cardiomyocytes plated onto 24-well plates were tested under normoxic condition or subjected to simulated ischemia (SI). The normoxic cardiomyocytes were kept under normoxic conditions, i.e., the growth medium was changed to a normoxic solution (in mM: NaCl 125, KCl 5.4, NaH2PO4 1.2, MgCl2 0.5, HEPES 20, glucose 15, taurine 5, CaCl2 1, creatine 2.5, BSA 0.1%, pH 7.4, 310 mOsm/l) (Li et al., [2004]) and the cells were incubated under 95% air and 5% CO2 at 37°C for 2.5 h. […] The cells were then subjected to the following treatments during SI or normoxic protocol: vehicle control or MMP inhibitors at different doses calculated according to IC doses in vitro. […]
Figure 3 Experimental protocol for cell culture studies and for the ex vivo rat heart model of AMI. […] At the end of the reperfusion, cell viability was determined by using calcein flurescence. […] Subsequently, 2 h reperfusion was applied and then infarct size was determined. […]
Cell viability was assessed by a calcein and propidium iodine assay performed in each group after 2 h reoxygenation. […] Then the calcein solution was replaced with fresh PBS and the fluorescence intensity of each well was detected by a fluorescent plate reader (FluoStar Optima, BMG Labtech, Ortenberg, Germany). […]

A further test deals with isolated rat hearts. Description: Myocardial infarct size in isolated rat heart, global ischemia/reperfusion (Langendorff). The following applies: 1 μM; 30 min global ischemia, 120 min reperfusion; vs vehicle. As for the experimental part:
Our experiment conforms to the National Institutes of Health Guide for the Care and Use of Laboratory Animals (NIH Pub. No. 85-23, Revised 1996) and also to the EU directive guideline for the care and use of laboratory animals published by the European Union (2010/63/EU) and was approved by the local ethics committee of the University of Szeged. Eight to ten week-old male Wistar rats weighing 300–350 g (Toxicoop Ltd., Budapest, Hungary) were anesthetized intraperitoneally with 60 mg/kg pentobarbital sodium (Euthasol, Produlab Pharma, Raamsdonksveer, The Netherlands). After administration of 500 U/kg heparin through the femoral vein, the heart was isolated and perfused according to Langendorff with oxygenated Krebs-Henseleit buffer at 37°C as previously described (Turan et al., [2006]). […] Heart rate and coronary flow were monitored throughout the perfusion protocol. […]
At the end of the 2-h reperfusion, the right ventricle was removed, hearts were frozen, cut into six 1-mm-thick slices, and incubated in 1% triphenyl-tetrazolium chloride (Sigma-Aldrich; St. Louis, MO) at 37°C to delineate infarcted tissue. Slices were then fixed and quantified by planimetry using Infarctsize™ 2.5 software (Pharmahungary, Szeged, Hungary) (Fekete et al., [2013]). Infarct size was expressed as a percentage of the left ventricle.

The term IC50 denotes the midpoint of a concentration-inhibition curve. Read a low IC50 as greater potency.

With `O=C(O)c1c[nH]c(CN(Cc2ccc(F)cc2)Cc2ccc(OCc3ccccc3)cc2)n1` [MMPI-1154], the IC50 amounted to 13 µM at MMP-9 and 1.8 µM against MMP-13. The “increase in cell viability during simulated I/R” value in test [1] was “highest increase in cell viability”. In the test with isolated rat hearts, the myocardial infarct size entry is “reduced myocardial infarct size significanly”.
